One assay concerns HL-60. As to the kind of experiment: Antiproliferative activity against human HL60 cells after 72 hrs by MTT assay. In kind it is functional, cell-based. To be noted: HL-60, 72 h. For orientation: Tetrazolium dyes change colour on reduction, which living cells bring about.
The subject of another assay is MRC5. The assay can be described thus: Antiproliferative activity against human MRC5 cells after 72 hrs by MTT assay. In kind it is cell-based. To be noted: MRC5, 72 h.
Another assay concerns HeLa. The assay can be described thus: Antiproliferative activity against human HeLa cells after 72 hrs by MTT assay. The class given is functional, cell-based.
The next assay has as its system K562. The assay can be described thus: Antiproliferative activity against human K562 cells after 72 hrs by MTT assay. The class given is functional, cell-based. As to conditions: K562, 72 h.
In a further assay the test system is Jurkat. As to the kind of experiment: Antiproliferative activity against human Jurkat cells after 72 hrs by MTT assay. The class given is functional, cell-based.

In general, IC50 refers to the point on the concentration scale where inhibition reaches its midpoint. Lower therefore signals higher potency. Regarding `CCCCCCCCCCCC[C@@H](O)[C@H]1CCC(=O)O1`, the IC50 in the assay with HL-60 was 25.9 µM; in the assay on MRC5, over 100 µM; in the assay on HeLa, 0.17 µM; with K562 it was 0.04 µM; in the assay with Jurkat, over 100 µM.
As to `CCCCCCCCCCOC[C@@H](O)[C@H]1CCC(=O)O1`, the IC50 with HL-60 was 0.15 µM; in the assay on MRC5, over 100 µM; with HeLa, 21.4 µM; in the assay with K562 it was 0.13 µM; in the assay with Jurkat, 3.01 µM.
As for `CCCCCCCCCOC[C@@H]1O[C@H]2CC(=O)O[C@H]2[C@@H]1O`, the IC50 in the assay with HL-60 was 1.53 µM; in the assay with MRC5 it was over 100 µM; with HeLa, 9.59 µM; in the assay on K562, 8.61 µM; in the assay with Jurkat, 6.64 µM.
For the molecule `CCCCCCCCCCOC[C@@H]1O[C@H]2CC(=O)O[C@H]2[C@@H]1O`, the IC50 was 0.14 µM in the assay on HL-60; over 100 µM with MRC5; 0.3 µM with HeLa; 1.25 µM with K562; over 100 µM in the assay with Jurkat.

Source of the values: ChEMBL document CHEMBL1141718, “Design, synthesis and antiproliferative activity of two new heteroannelated (-)-muricatacin mimics” (Bioorg Med Chem Lett, 2008).
